According to article PMC5736207 (PLoS ONE, 2017):

Tests used:
[1] = molecular target: T1, PMM2 (phosphomannomutase2) (Homo sapiens, UniProt O15305); experiment: thermal shift assay, Sypro Orange; format: binding; details: 0-1 mM Glc-1,6-P2; MgCl2 1 mM, pH 7.5
T1 construct: recombinant, E. coli BL21(DE3), purified as in earlier work; no tag mentioned
T1 sequence (O15305 2-246): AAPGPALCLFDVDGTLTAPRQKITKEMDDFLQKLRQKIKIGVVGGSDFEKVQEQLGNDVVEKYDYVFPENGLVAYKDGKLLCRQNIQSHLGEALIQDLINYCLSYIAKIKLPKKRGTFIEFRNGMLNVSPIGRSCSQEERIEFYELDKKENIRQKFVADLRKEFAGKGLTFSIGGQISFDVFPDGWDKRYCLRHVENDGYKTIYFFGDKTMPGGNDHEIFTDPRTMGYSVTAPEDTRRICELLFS

[2] = molecular target: T2, PMM1 (phosphomannomutase1) (Homo sapiens, UniProt Q92871); experiment: thermal shift assay, Sypro Orange; format: binding; details: 0-1 mM Glc-1,6-P2; MgCl2 1 mM, pH 7.5
T2 construct: recombinant, E. coli BL21(DE3), purified as in earlier work (DEAE, butyl Sepharose); dimer; no tag mentioned
T2 sequence (Q92871 2-262): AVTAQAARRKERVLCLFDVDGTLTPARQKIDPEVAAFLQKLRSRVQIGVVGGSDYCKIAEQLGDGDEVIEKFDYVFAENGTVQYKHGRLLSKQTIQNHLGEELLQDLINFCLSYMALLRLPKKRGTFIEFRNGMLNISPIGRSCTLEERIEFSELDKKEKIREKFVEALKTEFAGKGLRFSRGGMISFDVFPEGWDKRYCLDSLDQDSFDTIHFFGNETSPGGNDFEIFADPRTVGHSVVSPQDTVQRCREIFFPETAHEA

[3] = molecular target: T2, PMM1 (phosphomannomutase1); experiment: coupled NADPH assays of phosphoglucomutase and Glc-1,6-P2 phosphatase activity; format: biochemical; details: PGM: 40 μM Glc-1-P, 27 μM Glc-1,6-P2, phosphatase: 0.145 mM Glc-1,6-P2
[4] = molecular target: T1, PMM2 (phosphomannomutase2); experiment: coupled NADPH assay of phosphoglucomutase activity; format: biochemical; details: 27 μM Glc-1,6-P2; MgCl2 5 mM, pH 7.5, 32°C

## O=P(O)(O)OC[C@H]1O[C@H](OP(=O)(O)O)[C@H](O)[C@@H](O)[C@@H]1O [Glc-1,6-P2]
[1]
  Tm: The bis-phosphate hexose binds PMM2
[2]
  Tm: effect of Glc-1,6-P2 on the melting temperature of PMM1 is seen only at very high concentrations

## O=P(O)(O)C(Cl)(Cl)P(=O)(O)O [clodronate, (Dichloro-phosphono-methyl)phosphonic acid]
[3]
  activity at 2.8 mM clodronate: clodronate as a novel specific inhibitor of PMM1 that decreases both PGM and Glc-1,6-P2-ase activities

## O=P(O)(O)O[C@H]1O[C@H](CO)[C@@H](O)[C@H](O)[C@H]1O [Glc-1-P]
[4]
  Km: 8.2 ± 0.7 µM
